Reference: patent US5554359A, “Pigmentation enhancer and method” (priority 1994, dated 1996)
Like-named read-outs stand apart in the source and are kept apart here.

Key:
[1] = tested on: tyrosinase activity in mouse melanoma cells; conditions: Cloudman S91; cited from earlier work
[2] = tested on: tyrosinase activity in mouse melanoma cells; experiment: Tyrosinase responses in mouse melanoma cells (Table 6); assay type: cell-based; conditions: for Effect on Tyrosinase Activity, Mouse Melanoma: Table 6, 10^-7 M except IBMX 10^-4 M, theophylline 1 mM, ammonium chloride 10 mM, A23187 not given
Description: (§1) The mouse melanoma cell lines used to study the effects of lysosomotropic agents herein were the Cloudman S91 cell line (ATCC no. CCL 53.1) and two subclones of this line developed in our laboratory, the amelanotic line, AM-7, and a melanotic line, MEL-11A. All melanoma cell lines were grown in Ham's F-10 nutrient medium supplemented with 10% horse serum, penicillin (100 units/ml), and streptomycin (100 μg/ml). The normal human melanocyte cell strains used in this study were derived from foreskins of either neonares or from boys 2-6 years old. Human melanocyte cultures were grown in Ham's F-10 nutrient medium supplemented with 10% horse serum, 5% fetal bovine serum (FBS), 32 nM TPA (12-O-tetradecanoylphorbol 13-acetate), 10^-4 M IBMX(3-isobutyl-1-methylxanthine), penicillin (100 units/ml), and streptomycin (100 μg/ml).
To determine tyrosinase activity in situ in either melanoma cells or in human melanocyte cultures, the tyrosine hydroxylase activity of the enzyme was determined. Cells were seeded into 60-mm culture dishes at 2×10^5 cells/dish and allowed to attach overnight. The medium was then exchanged for the appropriate growth medium supplemented with 1 μCi/ml of [^3 H]tyrosine (L-ring-3,5-^3 H]-tyrosine, DuPont New England Nuclear), and with hormones, where indicated. Cells were grown in labeled medium for 24 hours, and at this time, the medium was removed and assayed for the presence of ^3 H2 O using the charcoal absorption method of Pomerantz. Tyrosinase activity in cell homogenates was determined by sonicating cell pellets in 0.1-M sodium phosphate buffer (pH 6.8) and then incubating 50-μl aliquots in 0.5 ml of a reaction mixture containing 0.1-mM tyrosine, 2 μCi/ml of [^3 H]tyrosine, 0.1-mM L-DOPA (dihydroxyphenylalanine), and 0.1 mM PMSF (phenylmethylsulfonyl fluoride) at 37° C. for 2 hours. Reactions were terminated by the addition of 1 ml of charcoal (10% w/v in 0.1-N HCl). Samples were centrifuged, and the supernatants removed for determination of the amount of ^3 H2 O produced. […]

[3] = tested on: tyrosinase activity in human melanocytes; experiment: Tyrosinase responses in human melanocytes (Table 6); assay type: cell-based; conditions: Table 6, 10^-7 M except IBMX 10^-4 M, theophylline 1 mM, ammonium chloride 10 mM, A23187 not given, melanocytes from skin type III
Description: as §1
(§2) To determine tyrosinase activity in situ in either melanoma cells or in human melanocyte cultures, the tyrosine hydroxylase activity of the enzyme was determined. Cells were seeded into 60-mm culture dishes at 2×10^5 cells/dish and allowed to attach overnight. The medium was then exchanged for the appropriate growth medium supplemented with 1 μCi/ml of [^3 H]tyrosine (L-ring-3,5-^3 H]-tyrosine, DuPont New England Nuclear), and with hormones, where indicated. Cells were grown in labeled medium for 24 hours, and at this time, the medium was removed and assayed for the presence of ^3 H2 O using the charcoal absorption method of Pomerantz. Tyrosinase activity in cell homogenates was determined by sonicating cell pellets in 0.1-M sodium phosphate buffer (pH 6.8) and then incubating 50-μl aliquots in 0.5 ml of a reaction mixture containing 0.1-mM tyrosine, 2 μCi/ml of [^3 H]tyrosine, 0.1-mM L-DOPA (dihydroxyphenylalanine), and 0.1 mM PMSF (phenylmethylsulfonyl fluoride) at 37° C. for 2 hours. Reactions were terminated by the addition of 1 ml of charcoal (10% w/v in 0.1-N HCl). Samples were centrifuged, and the supernatants removed for determination of the amount of ^3 H2 O produced.
Hormone responsiveness in human melanocyte cell cultures were examined (for these studies, melanocytes derived from skin type III were used). […] Tyrosinase activity and melanin content typically double with a 48-hour exposure to IBMX. […] The steroid hormones, for the most part, caused little, if any, change in tyrosinase activity at the concentrations used.

[4] = tested on: tyrosinase activity in human foreskin organ cultures; experiment: Tyrosinase activity in human foreskin organ cultures (tyrosine hydroxylase assay); assay type: cell-based; conditions: for activity at 1000 µM: Homo sapiens, read-out: Tyrosinase Activity, Percentage of control; for activity at 1000 µM / Tyrosinase activity stimulated, percentage of black foreskins / Tyrosinase activity unaffected, percentage of black foreskins / Tyrosinase activity stimulated, percentage of white foreskins / Tyrosinase activity unaffected, percentage of white foreskins: 72 h; for activity at 1000 µM / Tyrosinase Activity: Table 3, theophylline 1 mM, 3 days; for Tyrosinase activity stimulated, percentage of black foreskins / Tyrosinase activity unaffected, percentage of black foreskins / Tyrosinase activity stimulated, percentage of white foreskins / Tyrosinase activity unaffected, percentage of white foreskins: Table 1, Theophylline 1 mM, MSH 2 × 10^-7 M, dbcAMP 0.1 mM, D-phe-MSH 10^-8 M; for Tyrosinase activity stimulated, percentage of black foreskins / Tyrosinase activity unaffected, percentage of black foreskins: B = black; for Tyrosinase activity stimulated, percentage of white foreskins / Tyrosinase activity unaffected, percentage of white foreskins: W = white; for stimulation of tyrosinase activity: human foreskins, 72 hours
Description: At the time of surgical removal, human foreskins were placed on sterile gauze saturated with sterile IMDM medium (Iscove's modified Dulbecco's medium purchased from Irvine Scientific of Santa Ana, Calif.) for transportation from the Hospital nursery to the laboratory. The tissues were rinsed in sterile IMDM medium containing 500 U/ml penicillin and 500 μg/ml of streptomycin for 5 minutes. Under sterile conditions, an intradermal injection of medium was performed from the dermal side prior to dissection of the mucous membrane and lower dermis by scissors to make the thickness of skins equal. The foreskins were then cut into approximately 3 mm×3 mm squares and either frozen at -75° C. or placed in organ culture as described hereafter.
The organ culture medium was prepared from IMDM with glutamine supplemented with 20% horse serum, 5% fetal bovine serum, 100 U/ml penicillin, 100 μg/ml streptomycin and 3 mg/ml sodium bicarbonate. The serums were obtained from Hyclone Lab. Inc. of Logan Utah. Culture units were prepared by placing sterilized filters (AP20 025 00, Millipore) over sterilized support screens ([…] Swinnex filter support screens, Millipore) in the wells of 6-well tissue culture plates (Falcon 3046) with medium added to the wells such that the skin support screens floated and the filter absorbed the medium from beneath. The tissue samples were placed, epidermis up, on top of the saturated filters and incubated at 37° C. in a 5% CO2 humidified atmosphere. The medium was changed everyday. Harvested cultures were frozen at -75° C.
Tyrosinase activity in human skin organ cultures was determined by measuring the tyrosine hydroxylase activity of the enzyme. The assay measures the production of ^3 H2 O during the conversion of [^3 H]tyrosine to L-DOPA. Weighed skin preparations were incubated in 0.3 ml of a reaction mixture containing 0.01 mM of L-tyrosine, 5-6 uCi/ml of [^3 H]tyrosine and 0.1 mM L-DOPA in 0.1M of pH 6.8 phosphate buffer for 4 hours at 37° C. To terminate the reaction, 1 ml of phosphate buffer was added, the tubes vortexed, and 0.4 ml aliquots removed in triplicate and mixed with an equal volume of Norit SG activated charcoal (10% w/v, in 0.1N HCl). Following centrifugation at 2000×g for 10 min, the supernatants (0.5 ml) were placed in scintillation vials, scintillation fluid added, and vials counted in a TM Analytic 6895 scintillation counter equipped with a DPM processor.
Human foreskins were treated with the compounds shown in Table 1, placed in culture, and incubated for 72 hours. The skins were then assayed for tyrosinase activity with the tyrosine hydroxylase assay method as described herein.
The medium and compounds were changed daily. Tyrosinase activity was determined by measuring the tyrosine hydroxylase activity of the enzyme.
Human foreskin organ cultures were treated with the compounds listed in Table 3 for 3 days and tyrosinase activity determined as described herein. Theophylline was used at 1 mM.

[5] = tested on: tyrosinase activity in human melanocytes from white-skinned individuals; experiment: Tyrosinase activity in human melanocytes from white skin; assay type: cell-based; conditions: cell strain 69W; up to four hours; FIG. 8
Description: as §1, §2
Dose/response parameters for ammonium chloride action were determined. […] Since tyrosinase is the rate-limiting enzyme for melanin synthesis, the stimulation of this enzyme by ammonium chloride should lead to increased melanin content of stimulated cells. […] Ammonium chloride increased tyrosinase activity in melanocytes from white-skinned individuals twenty-fold within 24 hours and by this time melanin contents had increased two-fold. Two other lysosomotropic agents, monensin and nigericin, were tested for their effects on tyrosinase activity. […] Thus, lysosomotropic agents have the ability to stimulate tyrosinase activity and melanin production in human melanocytes derived from white-skinned individuals, and to reduce melanin production in melanocytes from black-skinned people.

[6] = White skin (control 0.31 ± 0.03)
[7] = first Black skin (control 2.55 ± 0.13)
[8] = second Black skin (control 3.09 ± 0.12)

Nc1ncnc2c1nc(Br)n2[C@@H]1O[C@@H]2COP(=O)(O)O[C@H]2[C@H]1O [8-bromo cAMP]
mimicking of the MSH response [1]: mimicked

CNc1ccc2oc(C[C@H]3O[C@@]4(CC[C@H]3C)O[C@H]([C@H](C)C(=O)c3ccc[nH]3)[C@H](C)C[C@H]4C)nc2c1C(=O)O [A23187]
Effect on Tyrosinase Activity, Mouse Melanoma [2]: Inhibited
Effect on Tyrosinase Activity, Human Melanocyte [3]: No effect

C[C@]12CC[C@@H]3c4ccc(O)cc4CC[C@H]3[C@@H]1CC[C@@H]2O [Estradiol]
Effect on Tyrosinase Activity, Mouse Melanoma [2]: No Effect
Effect on Tyrosinase Activity, Human Melanocyte [3]: Inhibited

CC(=O)[C@H]1CC[C@H]2[C@@H]3CCC4=CC(=O)CC[C@]4(C)[C@H]3CC[C@]12C [Progesterone]
Effect on Tyrosinase Activity, Mouse Melanoma [2]: ± (100-150% of control)
Effect on Tyrosinase Activity, Human Melanocyte [3]: ± (100-150% of control)

CCCCC[C@H](O)/C=C/[C@H]1[C@H](O)CC(=O)[C@@H]1CCCCCCC(=O)O [Prostaglandin E1]
Effect on Tyrosinase Activity, Human Melanocyte [3]: + (150-200%)

CCCCCCCCCCCCCC(=O)O[C@@H]1[C@@H](C)[C@@]2(O)[C@@H](C=C(CO)C[C@]3(O)C(=O)C(C)=C[C@@H]23)[C@@H]2C(C)(C)[C@]12OC(C)=O [TPA, 12-O-tetradecanoylphorbol 13-acetate]
Effect on Tyrosinase Activity, Human Melanocyte [3]: No effect

C[C@]12CC[C@H]3[C@@H](CCC4=CC(=O)CC[C@@]43C)[C@@H]1CC[C@@H]2O [Testosterone]
Effect on Tyrosinase Activity, Mouse Melanoma [2]: No effect
Effect on Tyrosinase Activity, Human Melanocyte [3]: No effect

Cn1c(=O)c2[nH]cnc2n(C)c1=O [Theophylline, theophylline]
mimicking of the MSH response [1]: mimicked
response of mouse melanoma cells ([2]; compounds that raise intracellular cAMP levels or MSH): respond vigorously
activity at 1000 µM [4, 6]: 307%
activity at 1000 µM [4, 7]: 212%
activity at 1000 µM [4, 8]: 197%
Tyrosinase activity stimulated, percentage of black foreskins [4]: 92%
Tyrosinase activity unaffected, percentage of black foreskins [4]: 8%
Tyrosinase activity stimulated, percentage of white foreskins [4]: 86%
Tyrosinase activity unaffected, percentage of white foreskins [4]: 14%
Tyrosinase Activity [4, 6]: 0.95 ± 0.05 pmoles ^3 H2 O/hr/mg skin
Tyrosinase Activity [4, 7]: 5.40 ± 0.26 pmoles ^3 H2 O/hr/mg skin
Tyrosinase Activity [4, 8]: 6.1 ± 0.24 pmoles ^3 H2 O/hr/mg skin
stimulation of tyrosinase activity [4]: stronger stimulation of tyrosinase
activity at 1000 µM ([3]; Homo sapiens, Melanocyte, read-out: Effect on Tyrosinase Activity, Human Melanocyte): 150 to 200%

CC1(C)O[C@@H]2C[C@H]3[C@@H]4CCC5=CC(=O)C=C[C@]5(C)[C@@]4(F)[C@@H](O)C[C@]3(C)[C@]2(C(=O)CO)O1 [Triamcinolone acetonide]
Effect on Tyrosinase Activity, Mouse Melanoma [2]: ± (100-150% of control)
Effect on Tyrosinase Activity, Human Melanocyte [3]: ± (100-150% of control)

C=C1CC[C@H](O)C/C1=C/C=C1\CCC[C@]2(C)[C@@H]([C@H](C)CCCC(C)C)CC[C@@H]12 [Vitamin D3]
Effect on Tyrosinase Activity, Mouse Melanoma [2]: No effect
Effect on Tyrosinase Activity, Human Melanocyte [3]: No effect

CCCC(=O)Nc1ncnc2c1ncn2[C@@H]1O[C@@H]2COP(=O)(O)O[C@H]2[C@H]1OC(=O)CCC [dbcAMP, dibutyryl cyclic AMP]
mimicking of the MSH response [1]: mimicked
Tyrosinase activity stimulated, percentage of black foreskins [4]: 33%
Tyrosinase activity unaffected, percentage of black foreskins [4]: 67%
Tyrosinase activity stimulated, percentage of white foreskins [4]: 25%
Tyrosinase activity unaffected, percentage of white foreskins [4]: 75%
stimulation of tyrosinase activity [4]: less effective in stimulating tyrosinase activity

CC[C@@]1([C@@H]2O[C@@H]([C@H]3O[C@@](O)(CO)[C@H](C)C[C@@H]3C)C[C@@H]2C)CC[C@H]([C@]2(C)CC[C@]3(C[C@H](O)[C@@H](C)[C@@H]([C@@H](C)[C@@H](OC)[C@H](C)C(=O)O)O3)O2)O1 [monensin]
stimulation of tyrosinase activity [5]: stimulated tyrosinase activity

CO[C@@H]1C[C@@H](C[C@H]2CC[C@H](C)[C@H]([C@@H](C)C(=O)O)O2)O[C@]2(O[C@](C)([C@H]3CC[C@@](C)([C@@H]4O[C@@H]([C@H]5O[C@@](O)(CO)[C@H](C)C[C@@H]5C)C[C@@H]4C)O3)C[C@H]2C)[C@@H]1C [nigericin]
stimulation of tyrosinase activity [5]: stimulated tyrosinase activity

Insulin: Insulin
Effect on Tyrosinase Activity, Human Melanocyte [3]: No effect
